Patent US12281114B2, “NK3 modulators and uses thereof” (Kallyope, Inc., priority 2023, dated 2025)

These molecules were tested against T1, human NK3 (Homo sapiens, UniProt P29371) (assay: FLIPR calcium assay in antagonist mode (NKB EC70 challenge)). Conditions: stable cell line expressing human recombinant NK3; antagonist mode vs EC70 of NKB agonist.
T1 sequence (P29371 1-465): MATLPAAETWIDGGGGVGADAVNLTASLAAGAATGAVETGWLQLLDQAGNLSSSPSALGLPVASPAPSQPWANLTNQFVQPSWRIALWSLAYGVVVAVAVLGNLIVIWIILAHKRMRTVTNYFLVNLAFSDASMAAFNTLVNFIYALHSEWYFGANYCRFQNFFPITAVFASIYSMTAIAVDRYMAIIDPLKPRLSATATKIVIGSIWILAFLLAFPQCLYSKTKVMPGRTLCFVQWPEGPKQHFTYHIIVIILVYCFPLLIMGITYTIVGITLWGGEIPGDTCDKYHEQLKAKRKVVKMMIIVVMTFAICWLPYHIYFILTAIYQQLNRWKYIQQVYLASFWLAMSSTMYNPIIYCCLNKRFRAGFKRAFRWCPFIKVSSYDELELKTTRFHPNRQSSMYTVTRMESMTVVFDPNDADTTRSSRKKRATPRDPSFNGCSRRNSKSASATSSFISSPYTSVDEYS
Type: cell-based
Description: Stable Cell Lines: A human recombinant NK3 Tachykinin Receptor stable cell line was purchased from GenScript (Genscript, Cat. #M00201; GenBank Accession Number NM 001059). The cell line was cultured according to manufacturer instructions, using 100 μg/mL Hygromycin B (Invitrogen, Cat. #D2650) for selective pressure. Cells were then collected using 0.05% Trypsin-EDTA (GIBCO, Cat. #25300) and frozen in a freezing media containing 90% FBS (Gibco, Cat. #10099-141) and 10% DMSO (Sigma, Cat. #D2650) at a density of 30×10^6 cells/mL. This bank of assay-ready frozen cells was later used in FLIPR assays to evaluate the potency and efficacy of NK3 antagonist test compounds.
FLIPR Calcium Assay: The FLIPR assay, used to measure changes in intracellular calcium levels, was performed in a 384-well plate format using the FLIPR Calcium 6 assay kit (Molecular Devices, Cat. #R8190). Assay-ready frozen cells expressing human NK3 (Genscript, Cat. #M00201) were thawed, washed, trypsinized, counted using a ViCell, and plated in cell growth media without Hygromycin at a density of […] (40 μL/well).
Calculation of NKB EC70: An EC70 concentration of NKB needed to be determined for competition against test antagonists prior to the compound screen. NKB agonist (Phoenix Pharmaceuticals, Cat. #046-26) was diluted in DMSO at 1800 nM (6-fold the final concentration) and serially diluted to generate a 13-point dose response curve (3-fold serial dilution) using an ECHO. 20 μL of 1× stimulation buffer was added using the BRAVO. 10 μL of DMSO was added while on the FLIPR (described as the first addition), then the RFU signal was measured for 10 minutes. The NKB titration was added to the plate, then the RFU signal was measured for 10 minutes (described as the second addition) on the FLIPR. The EC70 concentration was determined by using a four-parameter fit on GraphPad Prism prior to performing the compound screen.
FLIPR Screen in Antagonist Mode: Test compounds were prepared at 60 μM (6-fold the final concentration) and spotted in 370 nL using the Janus and ECHO. 20 μL of assay buffer was added using the BRAVO. Calcium-sensitive dye was reconstituted in loading buffer (Molecular Devices, Cat. #R8190). Media was removed from the cell plate using a Bluecat Cell Washer, and 40 μL of dye was added to the cell plate using the Apricot. The plate was incubated for 2 hours at 37° C., 5% CO2, then transferred to the FLIPR instrument. 10 μL of compound was added on the FLIPR (described as the first addition), then the RFU signal was measured for 10 minutes. EC70 of NKB agonist was added to the entire plate (described as the second addition), and the RFU signal was measured for 10 minutes on the FLIPR. RFU (relative fluorescence units) signals for first baseline, first peak, second baseline, and second peak were measured using the FLIPR. RFU signal (second peak minus second baseline) for positive (Max, at 10 μM antagonist) and negative (Min, at 0 μM antagonist) controls were used to normalize data and generate values for % Activity. IC50 and efficacy values were determined using a standard curve fitting equation on Dotmatics.

Structure (SMILES)	IC50 [nM]
Cn1cc(-c2cccc(F)c2-c2nc3cc(C(=O)N[C@H]4CC[C@H](CO)OC4)ccn3c2Cl)c(F)n1 [Compound 924, 3-chloro-2-(2-fluoro-6-(3-fluoro-1-methyl-1H-pyrazol-4-yl)phenyl)-N-((3S,6R)-6-(hydroxymethyl)tetrahydro-2H-pyran-3-yl)imidazo[1,2-a]pyridine-7-carboxamide]	0.97
Cc1nn(C)cc1-c1ccccc1-c1nc2cc(C(=O)N3C[C@@H]4C[C@H]3C(=O)N4)ccn2c1Cl [Compound 434]	1.47
Cn1cc(-c2cccc(F)c2-c2nc3cc(C(=O)N[C@H]4CC5(C4)C[C@](C)(O)C5)ccn3c2Cl)c(F)n1 (stereo partly drawn) [Compound 928, cis 3-chloro-2-(2-fluoro-6-(3-fluoro-1-methyl-1H-pyrazol-4-yl)phenyl)-N-(6-hydroxy-6-methylspiro[3.3]heptan-2-yl)imidazo[1,2-a]pyridine-7-carboxamide]	1.56
Cn1cc(-c2cccc(F)c2-c2nc3cc(C(=O)N[C@H]4C[C@@](C)(O)C4)ccn3c2Cl)cn1 [Compound 835]	6.24
Cn1cc(-c2cccc(F)c2-c2nc3cc(C(=O)NC[C@H]4C[C@@](C)(O)C4)ccn3c2Cl)c(F)n1 [Compound 844]	0.42
Cc1nn(C)cc1-c1ccccc1-c1nc2cc(C(=O)NCC(C)(C)O)ccn2c1Cl [Compound 448]	6.01
Cc1nn(C)cc1-c1ccccc1-c1nc2cc(C(=O)NC[C@H]3C[C@@](C)(O)C3)ccn2c1Cl [Compound 631]	0.78
CC1(O)CCN(C(=O)c2ccn3c(Cl)c(-c4c(F)cc(F)cc4-c4c[nH]nc4F)nc3c2)CC1 [Compound 829]	8.27
Cn1ncc(-c2cc(F)cc(F)c2-c2nc3cc(C(=O)N[C@H]4C[C@@](C)(O)C4)ccn3c2Cl)c1F [Compound 832]	6.91
CCn1ncc(-c2ccccc2-c2nc3cc(C(=O)N[C@@H]4CO[C@H]5[C@@H]4OC[C@H]5O)ccn3c2Cl)c1C [Compound 477]	2.19
Cc1nn(C)cc1-c1ccccc1-c1nc2cc(C(=O)NC[C@]34C[C@](O)(C3)C4)ccn2c1Cl [Compound 633]	1.53
Cc1nn(C)cc1-c1ccccc1-c1nc2cc(C(=O)N[C@H]3CO[C@H]4[C@@H]3OC[C@@H]4O)ccn2c1Cl [Compound 767]	4.26
C[C@]1(O)C[C@H](NC(=O)c2ccn3c(Cl)c(-c4ccccc4-c4cn(C(F)(F)F)nc4Cl)nc3c2)C1 [Compound 821]	2.49
N#CC12CC(NC(=O)c3ccn4c(Cl)c(-c5c(F)cc(F)cc5-c5c[nH]nc5F)nc4c3)(C1)C2 [Compound 789, 3-chloro-N-(3-cyanobicyclo[1.1.1]pentan-1-yl)-2-(2,4-difluoro-6-(3-fluoro-1H-pyrazol-4-yl)phenyl)imidazo[1,2-a]pyridine-7-carboxamide]	1.99
Cc1nn(C)cc1-c1cccc(F)c1-c1nc2cc(C(=O)N[C@H]3CO[C@H]4[C@@H]3OC[C@H]4O)ccn2c1Cl [Compound 780]	3.34
Cc1nn(C)cc1-c1ccccc1-c1nc2cc(C(=O)N[C@H]3C[C@@](C)(O)C3)ccn2c1Cl [Compound 460]	2.55
Cc1nn(C)cc1-c1ccccc1-c1nc2cc(C(=O)N[C@H]3CO[C@H]4[C@@H]3OC[C@H]4O)ccn2c1C#N [Compound 781]	12.7
Cn1cc(-c2ccc(F)c(F)c2-c2nc3cc(C(=O)N4CCOCC4)ccn3c2Cl)c(F)n1 [Compound 933, (3-chloro-2-(2,3-difluoro-6-(3-fluoro-1-methyl-1H-pyrazol-4-yl)phenyl)imidazo[1,2-a]pyridin-7-yl)(morpholino)methanone]	5.66
Cc1nn(C)cc1-c1ccccc1-c1nc2cc(C(=O)N3CC(=O)N[C@H](CO)C3)ccn2c1Cl [Compound 639]	3.81
CO[C@H]1C[C@@H](NC(=O)c2ccn3c(F)c(-c4c(F)cc(F)cc4-c4c[nH]nc4Cl)nc3c2)C1 [Compound 833]	2.68
Cn1cc(-c2cccc(F)c2-c2nc3cc(C(=O)N[C@]45CC[C@](CO)(C4)OC5)ccn3c2Cl)cn1 [Compound 934]	9.69

Structure (SMILES)	IC50 [nM]
Cc1nn(C)cc1-c1ccccc1-c1nc2cc(C(=O)N3CCc4n[nH]nc4C3)ccn2c1Cl [Compound 486]	6.85
Cc1nn(C)cc1-c1ccccc1-c1nc2cc(C(=O)NC[C@@H]3CNCCO3)ccn2c1Cl [Compound 455]	1.74
Cc1nn(C)cc1-c1ccccc1-c1nc2cc(C(=O)NC3CCNCC3)ccn2c1Cl [Compound 704]	6.76
Cc1nn(C)cc1-c1ccccc1-c1nc2cc(C(=O)N[C@H]3C[C@](C)(O)C3)ccn2c1Cl [Compound 447]	3.19
Cc1nn(C)cc1-c1ccccc1-c1nc2cc(C(=O)NC(C)c3n[nH]c(=O)[nH]3)ccn2c1Cl (centres unmarked) [Compound 747]	2.08
Cn1cc(-c2cccc(F)c2-c2nc3cc(C(=O)N[C@H]4CC[C@@](C)(O)CC4)ccn3c2Cl)c(F)n1 [Compound 919]	1.27
Cc1nn(C)cc1-c1ccccc1-c1nc2cc(C(=O)N[C@H]3C[C@@](C)(C(=O)O)C3)ccn2c1C [Compound 298]	26.8
O=C(N[C@@H]1C[C@@H](O)[C@@H](O)C1)c1ccn2c(Cl)c(-c3c(F)cccc3-c3cn(C4CC4)nc3F)nc2c1 [Compound 852]	0.97
CC12CC(NC(=O)c3ccn4c(Cl)c(-c5c(F)cc(F)cc5-c5c[nH]nc5Cl)nc4c3)(CO1)C2 [Compound 788, 3-chloro-2-(2-(3-chloro-1H-pyrazol-4-yl)-4,6-difluorophenyl)-N-(1-methyl-2-oxabicyclo[2.1.1]hexan-4-yl)imidazo[1,2-a]pyridine-7-carboxamide]	1.03
Cc1nn(C)cc1-c1cccc(F)c1-c1nc2cc(C(=O)N3C[C@@H]4C[C@H]3C(=O)N4)ccn2c1C#N [Compound 468]	4.27
Cc1nn(C)cc1-c1ccccc1-c1nc2cc(C(=O)N[C@H]3C[C@H](C(C)(C)O)C3)ccn2c1Cl [Compound 793]	1.19
Cc1nn(C)cc1-c1c(F)cncc1-c1nc2cc(C(=O)N[C@H]3C[C@](C)(O)C3)ccn2c1Cl [Compound 824]	5.89
Cc1nn(C)cc1-c1ccccc1-c1nc2cc(C(=O)N[C@H]3CO[C@H]4[C@@H]3OC[C@H]4O)ccn2c1Cl [Compound 768]	1.96
Cn1cc(-c2cccc(F)c2-c2nc3cc(C(=O)N[C@H]4CC[C@@H](CO)OC4)ccn3c2C#N)c(F)n1 [Compound 926]	2.21
CC12CC(NC(=O)c3ccn4c(Cl)c(-c5c(F)cc(F)cc5-c5c[nH]nc5F)nc4c3)(CO1)C2 [Compound 790, 3-chloro-2-(2,4-difluoro-6-(3-fluoro-1H-pyrazol-4-yl)phenyl)-N-(1-methyl-2-oxabicyclo[2.1.1]hexan-4-yl)imidazo[1,2-a]pyridine-7-carboxamide]	3.31
Cn1cc(-c2cccc(F)c2-c2nc3cc(C(=O)NCC45CC(CO)(CO4)C5)ccn3c2Cl)c(F)n1 [Compound 839]	0.46
Cc1nn(C)cc1-c1cncc(F)c1-c1nc2cc(C(=O)N[C@H]3C[C@@](C)(O)C3)ccn2c1Cl [Compound 823]	3.25
Cc1nn(C)cc1-c1c(F)c(F)cc(F)c1-c1nc2cc(C(=O)N3C[C@@H]4C[C@H]3C(=O)N4)ccn2c1Cl [Compound 817]	1.92
O=C(NCC1(O)COC1)c1ccn2c(F)c(-c3c(F)cc(F)cc3-c3c[nH]nc3Cl)nc2c1 [Compound 834]	6.01
Cc1nn(C)cc1-c1ccccc1-c1nc2cc(C(=O)N3CCC4(CC(CO)C4)C3)ccn2c1Cl (centres unmarked) [Compound 792]	2.09
